From ChEMBL document CHEMBL5537115, “New broad-spectrum and potent antibacterial agents with dual-targeting mechanism: Promoting FtsZ polymerization and disrupting bacterial membranes” (Eur J Med Chem, 2024)
≈ marks a conversion by molar mass, not a printed value.

Experiments:
Format in all cases: functional
Enterococcus faecalis [1] = assay: Antibacterial activity against vancomycin-susceptible Enterococcus faecalis ATCC29212 assessed as bacterial growth inhibition incubated for 20 hrs by CLSI based broth microdilution method
Klebsiella pneumoniae = assay: Antibacterial activity against Klebsiella pneumoniae ATCC BAA-1902 assessed as bacterial growth inhibition incubated for 20 hrs by CLSI based broth microdilution method
Staphylococcus aureus [2] = assay: Antibacterial activity against erythromycin-susceptible Staphylococcus aureus ATCC25923 assessed as bacterial growth inhibition incubated for 20 hrs by CLSI based broth microdilution method
Enterococcus faecalis [3] = assay: Antibacterial activity against vancomycin-resistant Enterococcus faecalis ATCC51299 assessed as bacterial growth inhibition incubated for 20 hrs by CLSI based broth microdilution method
Bacillus subtilis = assay: Antibacterial activity against penicillin-susceptible Bacillus subtilis ATCC9372 assessed as bacterial growth inhibition incubated for 20 hrs by CLSI based broth microdilution method
Streptococcus pyogenes [4] = assay: Antibacterial activity against erythromycin-susceptible Streptococcus pyogenes 1 assessed as bacterial growth inhibition incubated for 20 hrs by CLSI based broth microdilution method
Enterococcus faecium [5] = assay: Antibacterial activity against vancomycin-resistant Enterococcus faecium ATCC51559 assessed as bacterial growth inhibition incubated for 20 hrs by CLSI based broth microdilution method
Staphylococcus aureus [6] = assay: Antibacterial activity against penicillin-resistant Staphylococcus aureus ATCC31007 assessed as bacterial growth inhibition incubated for 20 hrs by CLSI based broth microdilution method
Staphylococcus aureus [7] = assay: Antibacterial activity against Staphylococcus aureus clinical isolate assessed as bacterial growth inhibition incubated for 20 hrs by CLSI based broth microdilution method
Enterococcus faecium [8] = assay: Antibacterial activity against vancomycin-susceptible Enterococcus faecium ATCC19434 assessed as bacterial growth inhibition incubated for 20 hrs by CLSI based broth microdilution method
Acinetobacter baumannii = assay: Antibacterial activity against Acinetobacter baumannii ATCC19606 assessed as bacterial growth inhibition incubated for 20 hrs by CLSI based broth microdilution method
Escherichia coli [9] = assay: Antibacterial activity against wild-type Escherichia coli BW25113 assessed as bacterial growth inhibition incubated for 20 hrs by CLSI based broth microdilution method
[10] = system: Staphylococcus epidermidis; assay: Antibacterial activity against penicillin-resistant Staphylococcus epidermidis clinical isolate assessed as bacterial growth inhibition incubated for 20 hrs by CLSI based broth microdilution method
Staphylococcus aureus [11] = assay: Antibacterial activity against methicillin-resistant Staphylococcus aureus ATCC43300 assessed as bacterial growth inhibition incubated for 20 hrs by CLSI based broth microdilution method
Bacillus pumilus = assay: Antibacterial activity against penicillin-susceptible Bacillus pumilus CMCC63202 assessed as bacterial growth inhibition incubated for 20 hrs by CLSI based broth microdilution method
Escherichia coli [12] = assay: Antibacterial activity against penicillin-susceptible Escherichia coli ATCC25922 assessed as bacterial growth inhibition incubated for 20 hrs by CLSI based broth microdilution method
Streptococcus pyogenes [13] = assay: Antibacterial activity against erythromycin-resistant Streptococcus pyogenes 2 clinical isolate assessed as bacterial growth inhibition incubated for 20 hrs by CLSI based broth microdilution method

Row | SMILES | MIC (Enterococcus faecalis [1]) | MIC (Klebsiella pneumoniae) | MIC (Staphylococcus aureus [2]) | MIC (Enterococcus faecalis [3]) | MIC (Bacillus subtilis) | MIC (Streptococcus pyogenes [4]) | MIC (Enterococcus faecium [5]) | MIC (Staphylococcus aureus [6]) | MIC (Staphylococcus aureus [7]) | MIC (Enterococcus faecium [8]) | MIC (Acinetobacter baumannii) | MIC (Escherichia coli [9]) | MIC [10] | MIC (Staphylococcus aureus [11]) | MIC (Bacillus pumilus) | MIC (Escherichia coli [12]) | MIC (Streptococcus pyogenes [13])
1 | C[n+]1cc(-c2ccccc2)c(/C=C/c2ccc(F)cc2)cc1-c1ccc(C(C)(C)C)cc1.[I-] | 2 µg/mL | 8 µg/mL | 1 µg/mL | 2 µg/mL | 1 µg/mL | 2 µg/mL | 2 µg/mL | 1 µg/mL | 1 µg/mL | 2 µg/mL | 4 µg/mL | 8 µg/mL | 2 µg/mL | 1 µg/mL | 1 µg/mL | 8 µg/mL | 4 µg/mL
2 | COc1ccc2cc3[n+](cc2c1OC)CCc1cc2c(cc1-3)OCO2 [BERBERINE] | > 64 µg/mL | > 64 µg/mL | 64 µg/mL | > 64 µg/mL | > 64 µg/mL | > 64 µg/mL | > 64 µg/mL | > 64 µg/mL | 64 µg/mL | > 64 µg/mL | > 64 µg/mL | > 64 µg/mL | > 64 µg/mL | > 64 µg/mL | > 64 µg/mL | > 64 µg/mL | > 64 µg/mL
3 | C[n+]1cc(-c2ccccc2)c(/C=C/c2ccc(N3CCCCC3)cc2)cc1-c1ccc(C(C)(C)C)cc1.[I-] | 1 µg/mL | 8 µg/mL | 0.25 µg/mL | 2 µg/mL | 0.5 µg/mL | 0.5 µg/mL | 1 µg/mL | 0.25 µg/mL | 0.5 µg/mL | 1 µg/mL | 1 µg/mL | 4 µg/mL | 1 µg/mL | 1 µg/mL | 0.125 µg/mL | 64 µg/mL | 2 µg/mL
4 | C[n+]1cc(-c2ccccc2)cc(/C=C/c2ccccc2[N+](=O)[O-])c1-c1ccccc1.I | > 64 µg/mL | > 64 µg/mL | 8 µg/mL | > 64 µg/mL | 16 µg/mL | 16 µg/mL | > 64 µg/mL | > 64 µg/mL | 32 µg/mL | > 64 µg/mL | 64 µg/mL | > 64 µg/mL | 64 µg/mL | 32 µg/mL | 64 µg/mL | > 64 µg/mL | 16 µg/mL
5 | C[n+]1cc(-c2ccccc2)c(/C=C/c2ccc(N)cc2)cc1-c1ccccc1.[I-] | 64 µg/mL | > 64 µg/mL | 2 µg/mL | > 64 µg/mL | 4 µg/mL | 4 µg/mL | 64 µg/mL | 64 µg/mL | 16 µg/mL | > 64 µg/mL | 32 µg/mL | > 64 µg/mL | 32 µg/mL | 16 µg/mL | 16 µg/mL | > 64 µg/mL | 16 µg/mL
6 | CC(C)c1ccc(/C=C/c2cc(-c3ccc4ccccc4c3)[n+](C)cc2-c2ccccc2)cc1.[I-] | 2 µg/mL | 16 µg/mL | 0.5 µg/mL | 4 µg/mL | 0.5 µg/mL | 0.5 µg/mL | 2 µg/mL | 2 µg/mL | 0.5 µg/mL | 2 µg/mL | 2 µg/mL | 8 µg/mL | 2 µg/mL | 0.5 µg/mL | 0.5 µg/mL | 64 µg/mL | 4 µg/mL
7 | C[n+]1cc(-c2ccccc2)cc(/C=C/c2ccc(Cl)c(Cl)c2)c1-c1ccccc1.[I-] | 8 µg/mL | > 64 µg/mL | 0.5 µg/mL | 8 µg/mL | 0.5 µg/mL | 2 µg/mL | 8 µg/mL | 8 µg/mL | 2 µg/mL | 8 µg/mL | 2 µg/mL | 64 µg/mL | 8 µg/mL | 2 µg/mL | 4 µg/mL | 64 µg/mL | 2 µg/mL
8 | CN[C@H](CC(C)C)C(=O)N[C@H]1C(=O)N[C@@H](CC(N)=O)C(=O)N[C@H]2C(=O)N[C@H]3C(=O)N[C@H](C(=O)N[C@H](C(=O)O)c4cc(O)cc(O)c4-c4cc3ccc4O)[C@H](O)c3ccc(c(Cl)c3)Oc3cc2cc(c3O[C@@H]2O[C@H](CO)[C@@H](O)[C@H](O)[C@H]2O[C@H]2C[C@](C)(N)[C@H](O)[C@H](C)O2)Oc2ccc(cc2Cl)[C@H]1O [VANCOMYCIN] |  | > 64 µg/mL |  | > 64 µg/mL | 0.5 µg/mL (≈ 0.345 µM) | 0.25 µg/mL (≈ 0.173 µM) | > 64 µg/mL |  |  |  | 64 µg/mL (≈ 44.2 µM) | > 64 µg/mL |  |  | 2 µg/mL (≈ 1.38 µM) | > 64 µg/mL | 1 µg/mL (≈ 0.69 µM)
9 | CC(=O)Nc1ccc(/C=C/c2cc(-c3ccc4ccccc4c3)[n+](C)cc2-c2ccccc2)cc1.[I-] | 16 µg/mL | > 64 µg/mL | 0.5 µg/mL |  | 1 µg/mL |  |  |  | 1 µg/mL | 32 µg/mL | 32 µg/mL | > 64 µg/mL |  |  | 16 µg/mL | > 64 µg/mL | 
